Measured values taken from patent US6479460B1, “Synthetic peptides and pseudopeptides having osteogenic activity and pharmaceutical compositions containing the same” (Yissum Research Development Company of the Hebrew …, priority 1996, dated 2002).
“Also recorded” adds a separate entry of the source. Where no end group is shown, it is not given here. [ ]: non-standard residue; d: D form. The star is where a group is joined. Biotin = O=C1N[C@H]2[C@H](CS[C@H]2CCCCC(=O)*)N1; Bpa = N[C@@H](Cc1ccc(C(=O)c2ccccc2)cc1)C(=O)O; Tyr(3-I) = N[C@@H](Cc1ccc(O)c(I)c1)C(=O)O; Desaminotyrosyl = O=C(CCc1ccc(O)cc1)*; NMeY = CN[C@@H](Cc1ccc(O)cc1)C(=O)O; Hexanoyl = CCCCCC(=O)*; NHCH2CH2OMe = COCCN*; GABA = NCCCC(=O)O; βAla = NCCC(=O)O

Experiments:
[1] = tested on: osteoblastic MC3T3 E1 cells; assay: Inhibition of stimulatory effect of optimal OGP dose on MC3T3 E1 cells (FIG. 7); type: cell-based; settings: cultures treated with 10^−13M synthetic OGP(1-14) plus antagonist
Procedure: All other cultures were treated with 10^−13M synthetic OGP(1-14) (SEQ ID NO: 1) and the indicated dose of antagonist. Data are mean±SE obtained in three culture wells per condition.
(§1) The effect of OGP analogs on osteoblastic MC3T3 E1 and fibroblastic NIH 3T3 cell proliferation was measured as before [Bab, I., et al (1992) EMBO J. 11:1867]. Some of the analogs were subjected to a dose response analysis. Otherwise the analog concentration was 10^−13M and 10^−11M in the MC3T3 E1 and NIH3T3 cell cultures, respectively. The mean cell number in triplicate culture wells was expressed as percent of a positive control triplicate dosed with OGP(1-14) (SEQ ID NO: 1). Experiments testing one dose per cell line were repeated at least four times and the activity of individual analogs expressed as the mean of results and 95% confidence limit obtained in these repetitive experiments.

[2] = tested on: fibroblastic NIH 3T3 cells; assay: Proliferation assay, fibroblastic NIH 3T3 cells; type: cell-based; settings: analog concentration 10^−11M; mean cell number relative to positive control OGP(1-14) = 1.00
Excerpt: (§2) Some of the analogs were subjected to a dose response analysis.

[3] = tested on: osteoblastic MC3T3 E1 cells; assay: Proliferation assay, osteoblastic MC3T3 E1 cells; type: cell-based; settings: for analog concentration evoking the peak inhibitory response / anti-proliferative activity (in words): absence of exogenous OGP, FIG. 8; for Relative in vitro potency (95% confidence limit) MC3T3 E1 cells: analog concentration 10^−13M, mean cell number relative to positive control OGP(1-14) = 1.00
Excerpt: as §2

[4] = tested on: osteoblastic MC3T3 E1 and fibroblastic NIH 3T3 cells; assay: Proliferation assay, text statements not split by cell line; type: cell-based; settings: for OGP-like proliferative activity (in words): in vitro, compared to OGP(1-14) or parent analog
Procedure: as §1

ovariectomized mice = assay: Osteogenic effect of OGP analogs in ovariectomized mice; type: in vivo, C57B1/6 mice; settings: OVX mice, subcutaneous daily for six weeks, proximal tibial metaphysis, FIG. 5
Procedure: Thirty two female C57B1/6 mice weighing 25 gm underwent conventional bilateral ovariectomy (OVX). Additional eight control animals were subjected to sham OVX: the anterior abdominal wall was opened and the ovaries exposed but left intact. All animals were left untreated for 30 days. The OVX animals were then divided into four groups each consisting of eight mice. All animals were injected subcutaneously in the nape daily for six weeks with the following solutions: One group was given OGP(1-14) (SEQ ID NO: 1), 30 ng/day/mouse. A second group received OGP(10-14) (SEQ ID NO: 61), 10 ng/day/mouse. A third group was given desamino[Tyr^10]OGP(10-14) (SEQ ID NO: 4). All compounds were dissolved in phosphate buffered saline (PBS). An additional control OVX group was given the PBS solvent only. One day after termination of treatment the animals were killed and the tibial bones separated, fixed in phosphate buffered formalin and subjected to conventional decalcified histological processing. Sections through the midsagital region of the tibia were stained with Masson trichrome. Bone volume was determined in the secondary spongiosa of the proximal metaphysis in two sections 200-300 μm apart from each other in one tibia from each animal using an automated computerized image analyzer. The value for each animal was the mean reading from the two sections.

ovariectomized rats = assay: Number of bone marrow derived osteoblastic colonies from ovariectomized rats; type: in vivo, Sabra rats; settings: OVX rats, 100 ng/day/rat subcutaneous daily for eight weeks, FIG. 6
Procedure: Twenty five female Sabra rats weighing 250 g each were subjected to bilateral ovariectomy (OVX). Additional five control animals underwent sham OVX. All animals were left untreated for 30 days. Then the OVX animals were divided into five groups, each consisting of five rats. All animals were injected subcutaneously in the nape daily for eight weeks with following solutions: One group was given to OGP(10-14) (SEQ ID NO: 61), 100 ng/day/rat. A second group was given desamino[Tyr^10]OGP(10-14) (SEQ ID NO: 4), 100 ng/day/rat. A third group was given c(Tyr-Gly-Phe-Gly-Gly) (SEQ ID NO: 35), 100 ng/day/rat. The fourth group was given retro OGP ([…] (SEQ ID NO: 60), 300 ng/day/rat. All compounds were dissolved in PBS. An additional control OVX group was given the PBS solvent only. After termination of treatment the animals were killed and the femoral and tibial bone marrow from both posterior limbs was pooled and transferred to alpha minimal essential medium (αMEM). Bone marrow cell cultures were set in 35 mm dishes, 10 dishes per animal, as described previously [Rickard, D. J., et al (1994) Biology, 161:218]. The total number of fibroblastic colonies (CFU-f) formed was determined after three weeks in culture. Immediately after, the CFU-f cultures were stained for alkaline phosphates and co-stained for mineral with alizarin-red-S. The alizarin-red-S positive colonies were considered osteoblastic. Their frequency was expressed as their percentage of the total numbers of colonies. The value for each animal was calculated as the mean percentage obtained in the 10 dishes.

[5] = listed as [N(CH3)-Tyr^10]OGP(9-14)
[6] = listed as c[Tyr-Gly-Phe-Gly-Gly]

| Substance | Relative in vitro potency (95% confidence limit) NIH 3T3 cells [2] | Relative in vitro potency (95% confidence limit) MC3T3 E1 cells [3] | OGP-like proliferative activity (in words) [4] | other results |
| --- | --- | --- | --- | --- |
| Leu-N(CH3)-CH(CH2C6H4(OH))-C(O)-Gly-Phe-Gly-Gly (L[NMeY]GFGG) [N(Me)-[Tyr^10]OGP(9-14)] | −0.32 | −0.34 | – | inhibition of stimulation by optimal OGP dose / OGP antagonism (in words) [1]: highly potent OGP antagonist; inhibition of stimulation by optimal OGP dose / OGP antagonism (in words) [1, 5]: inhibitory effect at low doses; analog concentration evoking the peak inhibitory response [3]: 10^−13 M; anti-proliferative activity (in words) [3]: inhibit osteoblastic MC3T3 E1 cell proliferation dose dependently at low concentrations with reversal of this inhibition at high doses; anti-proliferative activity (in words) [3, 5]: anti-proliferative activity |
| cyclo([dY]G[dF]GG) | 0.84 | 0.69 | retained a considerable level of proliferative activity | OGP-like proliferative activity (in words) ([4]; listed as c[D-Tyr-Gly-D-Phe-Gly-Gly]): considerable level of proliferative activity |
| desamino Tyr-Gly-Phe-Gly-Gly ([Desaminotyrosyl]GFGG) [desamino[Tyr^10]OGP(10-14)] | 0.66 | 0.77 | – | reversal of trabecular bone loss (in words) (ovariectomized mice): either similar or superior to the parent oligopeptides; also recorded: either similar or superior to those of OGP(1-14); reversal of reduction in osteoprogenitor cells / osteoblastic colonies (in words) (ovariectomized rats): either similar or superior to the parent oligopeptides; also recorded: either similar or superior to those of OGP(1-14); retention of OGP-like activity ([4]; summary of Table 1): approximately 70% |
| [Ala^11]OGP(11-14) (AFGG) | 0.07 | 0.17 | essentially nil | – |
| [Pro^11]OGP(10-14) (YPFGG) | 0.96 | 0.89 | – | OGP-like proliferative activity (in words) ([4]; listed as Table 5, analog 2): remained essentially unaltered |
| c(Tyr-Gly-Phe-Gly-Gly) (YGFGG; cyclic) | 1.12 | 0.79 | preserved or slightly improved its in vitro activity | reversal of reduction in osteoprogenitor cells / osteoblastic colonies (in words) (ovariectomized rats): improved over OGP(10-14); reversal of reduction in osteoprogenitor cells / osteoblastic colonies (in words) (ovariectomized rats; [6]): improved in vivo activity; OGP-like proliferative activity (in words) [4, 6]: preserves the OGP-like in vitro activity |
| Tyr-Gly-NH-CH(CH2C6H4(C(O)-C6H5))C(O)-Gly-Gly (YG[Bpa]GG) [[Bpa^12]OGP(10-14)] | 0.86 | 0.74 | only a minor effect on the OGP-like proliferative activity | – |
| c(Gly-Gly-Phe-Gly-Tyr) (GGFGY; cyclic) | 1.02 | 0.95 | preserved or slightly improved its in vitro activity | – |
| Tyr(m-I)-Gly-NH-CH(CH2C6H4(C(O)C6H5))C(O)-Gly-Gly ([Tyr(3-I)]G[Bpa]GG) [[Tyr^10(m-I),BPA^12]OGP(10-14)] | 0.85 | 0.80 | remained unaltered | – |
| c(γ-Abu-Tyr-Gly-Phe-Gly-Asp)-OH ([GABA]YGFGD-OH; lactam (positions not given here); also: cyclic, closure site not given here) | 0.07 | 0.13 | essentially nil | – |
| Tyr-Gly-Phe-Gly-Asp (YGFGD) [[Asp^14]OGP(10-14)] | −0.28 | −0.39 | – | inhibition of stimulation by optimal OGP dose / OGP antagonism (in words) [1]: inhibitory effect at low doses; analog concentration evoking the peak inhibitory response [3]: 10^−13 M; anti-proliferative activity (in words) [3]: anti-proliferative activity; also recorded: inhibit osteoblastic MC3T3 E1 cell proliferation dose dependently at low concentrations with reversal of this inhibition at high doses |
| Nα-Ac—OGP(12-14) (Ac-Phe-Gly-Gly) | 0.07 | 0.06 | essentially nil | – |
| c(β-Ala-Tyr-Gly-Phe-Gly-Asp)-OH ([βAla]YGFGD-OH; lactam (positions not given here); also: cyclic, closure site not given here) [c(β-Ma-Tyr-Gly-Phe-Gly-Asp)-OH] | -0.19 | −0.08 | essentially nil | – |
| cyclo(GG[dF]G[dY]) | 1.16 | 1.03 | preserved or slightly improved its in vitro activity | – |
| Nα-biotinylcaproyl[Bpa^12]OGP(10-14) ({Biotin-Hexanoyl}-YG[Bpa]GG) [Nα-biotinylcaproyl-[BPA^12]OGP(10-14)] | – | – | remained unaltered | – |
| desamino[Tyr^10]OGP(10-13)—NH(CH2)2OMe ([Desaminotyrosyl]GFG-NHCH2CH2OMe; SMILES COCCNC(=O)CNC(=O)[C@H](Cc1ccccc1)NC(=O)CNC(=O)CCc1ccc(O)cc1) | 0.06 | 0.03 | essentially nil | – |
| [Gly^13ψ(CH2)2Gly^14]OGP(11-14) (GFGG; also: reduced ethylene bond ψ(CH2)2 between Gly13 and Gly14) | 0.08 | 0.15 | essentially nil | – |
